ChEMBL document CHEMBL1687838, “The in vitro contribution of autolysins to bacterial killing elicited by amoxicillin increases with inoculum size in Enterococcus faecalis” (2011)
In brackets after ≈: the same amount, converted by molar mass. Activity calls are given as the source filed them. The calls are words filed in the database; no cut-off is given here.

Key:
Enterococcus faecalis [1] = test: Bactericidal activity against 5 X 10^8 CFU/ml Enterococcus faecalis JH2-2 harboring deletion at AltA, AltB and AltC gene at 2 ug/ml after 6 hrs by time kill analysis; assay type: functional
Enterococcus faecalis [2] = test: Bactericidal activity against 5 X 10^8 CFU/ml Enterococcus faecalis JH2-2 harboring deletion at AltA, AltB and AltC gene at 2 ug/ml after 3 hrs by time kill analysis; assay type: functional
Enterococcus faecalis [3] = test: Bactericidal activity against 5 X 10^6 CFU/ml Enterococcus faecalis JH2-2 at 2 ug/ml after 6 hrs by time kill analysis; assay type: functional
Enterococcus faecalis [4] = test: Bactericidal activity against 5 X 10^6 CFU/ml Enterococcus faecalis JH2-2 harboring deletion at AltA, AltB and AltC gene at 2 ug/ml after 3 hrs by time kill analysis; assay type: functional
Enterococcus faecalis [5] = test: Antibacterial activity against Enterococcus faecalis JH2-2 harboring deletion at AltA, AltB and AltC gene assessed as induction of membrane permeabilization at 2 ug/ml after 3 hrs by propidium iodide and Syto9 staining based confocal microscopic analysis; assay type: functional, organism-based
Enterococcus faecalis [6] = test: Bactericidal activity against 5 X 10^6 CFU/ml Enterococcus faecalis JH2-2 harboring deletion at AltA, AltB and AltC gene at 2 ug/ml after 6 hrs by time kill analysis; assay type: functional
Enterococcus faecalis [7] = test: Bactericidal activity against 5 X 10^6 CFU/ml Enterococcus faecalis JH2-2 at 2 ug/ml after 3 hrs by time kill analysis; assay type: functional
Enterococcus faecalis [8] = test: (§1) Bactericidal activity against 5 X 10^8 CFU/ml Enterococcus faecalis JH2-2 harboring deletion at AltA, AltB and AltC gene infected in rabbit assessed as bacterial load per gram of vegetation at 50 mg/kg, im administered three times a day starting 48 hrs post-infection measured after 24 hrs by time kill analysis (reference value: 8.69+- 1.19 log10 CFU/g); assay type: functional; conditions: route intramuscular
Enterococcus faecalis [9] = test: Bactericidal activity against 5 X 10^8 CFU/ml Enterococcus faecalis JH2-2 at 2 ug/ml after 6 hrs by time kill analysis; assay type: functional
Enterococcus faecalis [10] = test: Bactericidal activity against 5 X 10^8 CFU/ml Enterococcus faecalis JH2-2 at 2 ug/ml after 24 hrs by time kill analysis; assay type: functional
Enterococcus faecalis [11] = test: Bactericidal activity against 5 X 10^6 CFU/ml Enterococcus faecalis JH2-2 at 2 ug/ml after 24 hrs by time kill analysis; assay type: functional
Enterococcus faecalis [12] = test: as §1, with “JH2-2” for “JH2-2 harboring deletion at AltA, AltB and AltC gene”, “9.29+- 0.83” for “8.69+- 1.19”; assay type: functional; conditions: route intramuscular
Enterococcus faecalis [13] = test: Antibacterial activity against Enterococcus faecalis JH2-2 assessed as induction of membrane permeabilization at 2 ug/ml after 3 hrs by propidium iodide and Syto9 staining based confocal microscopic analysis; assay type: functional, organism-based
Enterococcus faecalis [14] = test: Antibacterial activity against Enterococcus faecalis JH2-2 by CLSI method; assay type: functional
Enterococcus faecalis [15] = test: Bactericidal activity against 5 X 10^8 CFU/ml Enterococcus faecalis JH2-2 harboring deletion at AltA, AltB and AltC gene at 2 ug/ml after 24 hrs by time kill analysis; assay type: functional
Enterococcus faecalis [16] = test: Bactericidal activity against 5 X 10^6 CFU/ml Enterococcus faecalis JH2-2 harboring deletion at AltA, AltB and AltC gene at 2 ug/ml after 24 hrs by time kill analysis; assay type: functional
Enterococcus faecalis [17] = test: Bactericidal activity against 5 X 10^8 CFU/ml Enterococcus faecalis JH2-2 at 2 ug/ml after 3 hrs by time kill analysis; assay type: functional
Enterococcus faecalis [18] = test: Antibacterial activity against Enterococcus faecalis JH2-2 harboring deletion at AltA, AltB and AltC gene by CLSI method; assay type: functional

CC1(C)S[C@@H]2[C@H](NC(=O)[C@H](N)c3ccc(O)cc3)C(=O)N2[C@H]1C(=O)O [AMOXICILLIN]
log10CFU/ml (Enterococcus faecalis [1]): 0.79 | log10CFU/ml (Enterococcus faecalis [2]): 2.83 | log10CFU/ml (Enterococcus faecalis [3]): 4.86 | log10CFU/ml (Enterococcus faecalis [4]): 3.15 | Activity (Enterococcus faecalis [5]): Active | log10CFU/ml (Enterococcus faecalis [6]): 1.45 | log10CFU/ml (Enterococcus faecalis [7]): 2.07 | log10CFU/g (Enterococcus faecalis [8]): 7.5 | log10CFU/ml (Enterococcus faecalis [9]): 4.59 | log10CFU/ml (Enterococcus faecalis [10]): 1.1 | log10CFU/ml (Enterococcus faecalis [11]): 2.48 | log10CFU/g (Enterococcus faecalis [12]): 7.69 | Activity (Enterococcus faecalis [13]): Active | MIC (Enterococcus faecalis [14]): 0.5 µg/mL (≈ 1.37 µM) | log10CFU/ml (Enterococcus faecalis [15]): 2.46 | log10CFU/ml (Enterococcus faecalis [16]): 4.44 | log10CFU/ml (Enterococcus faecalis [17]): 1.73 | MIC (Enterococcus faecalis [18]): 0.5 µg/mL (≈ 1.37 µM)
